Experimental data published in patent publication US9221790B2, “Benzamide derivatives” (Dong-A Pharm. Co., Ltd., priority 2010, dated 2015).
Where two headings read alike, the source gives them in different places.

Assays:
SD rats = assay: Evaluation of gastric emptying; assay type: in vivo, rat; conditions: 5 mg/kg oral, semi-solid diet 1 hour after dosing, stomach extracted 50 minutes after meal
Description: Evaluation of gastric emptying was carried out based on the method described in Iwanaga Y, et al., Jpn J Pharmacol. 1991, 56(3), 261-269. As experimental animals, SD rats (240 to 250 g) were used and divided into groups (n=5 to 6). On the day prior to the experiment, animals were fasted for 18 hours. Test materials were formulated as suspensions thereof in 0.5% (w/v) methylcellulose and were orally administered to the animals at a dose of 5 mg/kg. 1 hour after the oral administration of the test materials, 2 mL of a semi-solid diet was orally administered to the animals. The semi-solid diet was in the form of porridge formulated by pulverizing a standard solid diet together with distilled water in a mixer. 50 minutes after the administration of the semi-solid diet, the animals were sacrificed by cervical dislocation. After carrying out an abdominal incision, the stomach was extracted from the animals. The weight of diet remaining in the stomach was measured to thereby determine the gastric emptying rate (%). The gastric emptying rate was calculated according to the following equation.
Gastric Emptying Rate (%)=(1−X/Y)*100
X: Weight of diet remaining in the stomach extracted 50 minutes after administration of meal
Y: Weight of diet remaining in the stomach extracted immediately after administration of meal

hERG potassium channel = hERG potassium channel (Homo sapiens (Human), UniProt Q12809); assay: Binding affinity for hERG potassium channel ([H3]-Astemizole radioligand, HEK-293 membrane homogenates, MDS Pharma Service); conditions: probe [H3]-Astemizole (1.5 nM), 10 μM test material, 1.5 nM [H3]-Astemizole, hERG K+ channel, HEK-293 membranes
Description: The binding affinity of the compounds for the human ether-a-go-go-related gene (hERG) potassium (K+) channel which is associated with cardiac QT prolongation was assayed in MDS Pharma Service (Catalog No. 265900). Membrane homogenates were obtained from mammalian HEK-293 cells expressing the hERG potassium channel and then used in the binding assay experiment. For the binding assay experiment, the membrane homogenates were respectively mixed and incubated with 10 μM of test materials and 1.5 nM of [H3]-Astemizole (Perkin Elmer). After the incubation was completed, the radioactivity bound to the hERG K+ channel was counted. The affinity of each test material for the hERG K+ channel was calculated from % inhibition of specific binding of the radioligand to the hERG K+ channel, resulting from the action of the test material.

ICR mice = assay: Acute oral toxicity of compounds in mice; assay type: in vivo; conditions: male ICR mice, single oral dose 1 g/10 mL/kg, 2 weeks observation
Description: 200 mg of each of Example compounds was triturated in 1% hydroxypropyl methyl-cellulose, and the resulting triturations were then orally administered to 5-week old male ICR mice (20 g±2 g, n=5) at a dose of 1 g/10 mL/kg. The minimum lethal dose (MLD, mg/kg) of the individual compounds was investigated by the observation of the mortality, body weight, clinical symptoms and the like of animals over the entire experimental period of 2 weeks.

human 5-HT4 receptor = human 5-HT4 receptor (Homo sapiens (Human), UniProt Q13639); assay: Binding affinity of compounds for 5-HT4 receptor ([H3]-GR113808 radioligand, COS-7 membrane homogenates)
Description: The binding affinity of the compounds for a human 5-HT4 receptor was assayed according to the method as disclosed in the literature [Wyngaert et al., Journal of Neurochemistry, (1997) 69, 1810-1819]. For this purpose, COS-7 cells expressing the human 5-HT4 receptor were constructed and homogenized to obtain membrane homogenates which were then used in binding assay experiments. For the binding assay, the membrane homogenates were respectively mixed and incubated with different concentrations of test materials and [H3]-GR113808 (Amersham Biosciences). The concentrations of the individual test materials were set to 4 μM, 1 μM, 0.25 μM, and 0.0625 μM, respectively, and the concentration of [H3]-GR113808 was set to 0.595 nM. After the incubation was completed, the reaction products were collected in GF/B glass fiber filters using a Packard cell harvester, and the bound radioactivity was then determined using a liquid cell scintillation counter (Packard TopCount NXT™, Perkin Elmer). Specific binding of the radioligand to the 5-HT4 receptor was calculated by subtracting the non-specific binding of the radioligand from the total radioligand binding. IC50 was calculated from % inhibition of specific binding of the radioligand to the 5-HT4 receptor, with respect to varying concentrations of the test materials.

[1] = inhibition of specific binding of 0.595 nM [H3]-GR113808 to human 5-HT4 receptor, COS-7 membranes, read-out: IC50

human 5-HT4 receptor, sequence (Q13639 whole entry): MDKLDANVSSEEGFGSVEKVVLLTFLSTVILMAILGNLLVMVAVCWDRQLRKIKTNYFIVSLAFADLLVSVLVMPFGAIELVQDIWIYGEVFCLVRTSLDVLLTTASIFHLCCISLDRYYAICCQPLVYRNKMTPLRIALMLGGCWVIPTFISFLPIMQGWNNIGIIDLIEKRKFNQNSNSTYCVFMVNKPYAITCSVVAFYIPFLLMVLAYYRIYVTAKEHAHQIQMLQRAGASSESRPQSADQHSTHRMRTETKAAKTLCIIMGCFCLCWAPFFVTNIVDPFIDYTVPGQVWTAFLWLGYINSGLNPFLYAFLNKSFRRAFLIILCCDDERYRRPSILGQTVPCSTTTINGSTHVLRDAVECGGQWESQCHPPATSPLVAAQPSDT
hERG potassium channel, sequence (Q12809 whole entry): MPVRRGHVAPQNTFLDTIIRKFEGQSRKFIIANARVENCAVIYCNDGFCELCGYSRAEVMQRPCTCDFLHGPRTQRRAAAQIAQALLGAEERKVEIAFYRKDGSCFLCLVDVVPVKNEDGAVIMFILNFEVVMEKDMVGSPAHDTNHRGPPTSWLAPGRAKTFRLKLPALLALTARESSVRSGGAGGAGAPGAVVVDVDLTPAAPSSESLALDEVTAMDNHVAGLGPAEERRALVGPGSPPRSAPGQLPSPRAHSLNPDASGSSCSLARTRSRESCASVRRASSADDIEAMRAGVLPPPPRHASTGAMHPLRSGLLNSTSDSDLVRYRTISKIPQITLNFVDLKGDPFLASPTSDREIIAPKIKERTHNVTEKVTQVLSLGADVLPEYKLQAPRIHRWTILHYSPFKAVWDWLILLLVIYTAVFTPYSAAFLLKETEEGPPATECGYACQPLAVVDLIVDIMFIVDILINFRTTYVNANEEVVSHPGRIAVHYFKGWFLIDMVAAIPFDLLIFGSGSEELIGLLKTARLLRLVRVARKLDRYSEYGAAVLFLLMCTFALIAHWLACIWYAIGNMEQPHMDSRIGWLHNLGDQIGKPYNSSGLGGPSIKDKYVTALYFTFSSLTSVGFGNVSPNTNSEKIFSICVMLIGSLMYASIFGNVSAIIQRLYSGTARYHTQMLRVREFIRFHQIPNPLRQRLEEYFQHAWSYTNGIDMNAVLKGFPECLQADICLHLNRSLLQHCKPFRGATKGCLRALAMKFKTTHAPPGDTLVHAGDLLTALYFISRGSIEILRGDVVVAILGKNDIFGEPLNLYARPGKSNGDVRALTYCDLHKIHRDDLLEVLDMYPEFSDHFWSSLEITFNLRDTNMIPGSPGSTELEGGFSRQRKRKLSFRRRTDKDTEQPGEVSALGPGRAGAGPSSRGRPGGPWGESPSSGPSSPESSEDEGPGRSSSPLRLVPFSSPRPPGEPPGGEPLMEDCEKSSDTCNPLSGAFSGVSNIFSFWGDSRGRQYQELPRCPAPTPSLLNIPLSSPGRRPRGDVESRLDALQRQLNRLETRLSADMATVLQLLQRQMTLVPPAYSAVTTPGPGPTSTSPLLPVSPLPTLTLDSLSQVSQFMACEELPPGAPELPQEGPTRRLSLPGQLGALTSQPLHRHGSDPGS

| SMILES | Gastric emptying rate (SD rats) | inhibition at 10 μM (hERG potassium channel) | Minimum lethal dose (MLD) (ICR mice) | IC50 (human 5-HT4 receptor; [1]) | IC50 (human 5-HT4 receptor) |
| --- | --- | --- | --- | --- | --- |
| COc1cc(N)c(Cl)cc1C(=O)NCC1CCN(CCCn2cncn2)CC1 [Example 1, N-((1-(3-(1,2,4-triazol-1-yl)propyl)piperidin-4-yl)methyl)-4-amino-5-chloro-2-methoxybenzamide] | 43.0% | 1% | >1000 mg/kg | 0.226 nM | – |
| COc1cc(N)c(Cl)cc1C(=O)NCC1CCN(CCCn2cnnn2)CC1 [Example 2, N-((1-(3-(tetrazol-1-yl)propyl)piperidin-4-yl)methyl)-4-amino-5-chloro-2-methoxybenzamide] | 52.8% | 4% | >1000 mg/kg | 0.164 nM | – |
| COc1cc(N)c(Cl)cc1C(=O)NCC1CCN(CCCn2ccc3ccccc32)CC1 [Example 3, N-((1-(3-(indol-1-yl)propyl)piperidin-4-yl)methyl)-4-amino-5-chloro-2-methoxybenzamide] | 45.2% | – | >1000 mg/kg | 0.039 nM | – |
| COc1cc(N)c(Cl)cc1C(=O)NCC1CCN(CCCn2ccnc2C)CC1 [Example 4, N-((1-(3-(2-methylimidazol-1-yl)propyl)piperidin-4-yl)methyl)-4-amino-5-chloro-2-methoxybenzamide] | 46.4% | 14% | >1000 mg/kg | 0.229 nM | – |
| COc1cc(N)c(Cl)cc1C(=O)NCC1CCN(CCCCCn2ccc3ccccc32)CC1 [Example 5, N-((1-(5-(indol-1-yl)pentyl)piperidin-4-yl)methyl)-4-amino-5-chloro-2-methoxybenzamide] | 52.0% | – | >1000 mg/kg | 0.005 nM | – |
| COc1cc(N)c(Cl)cc1C(=O)NCC1CCN(CCCCCn2ccnn2)CC1 [Example 6, N-((1-(5-(1,2,3-triazol-1-yl)pentyl)piperidin-4-yl)methyl)-4-amino-5-chloro-2-methoxybenzamide] | 46.0% | 8% | >1000 mg/kg | 0.103 nM | – |
| COc1cc(N)c(Cl)cc1C(=O)NCC1CCN(CCCn2ccnn2)CC1 [Example 7, N-((1-(3-(1,2,3-triazol-1-yl)propyl)piperidin-4-yl)methyl)-4-amino-5-chloro-2-methoxybenzamide] | 56.1% | 7% | >1000 mg/kg | 0.067 nM | – |
| COc1cc(N)c(Cl)cc1C(=O)NCC1CCN(CCCn2nccn2)CC1 [Example 8, N-((1-(3-(1,2,3-triazol-2-yl)propyl)piperidin-4-yl)methyl)-4-amino-5-chloro-2-methoxybenzamide] | 49.1% | 15% | >1000 mg/kg | 0.182 nM | – |
| COc1cc(N)c(Cl)cc1C(=O)NCC1CCN(Cc2cccnc2)CC1 [Example 9, N-((1-(pyridin-3-ylmethyl)piperidin-4-yl)methyl)-4-amino-5-chloro-2-methoxybenzamide] | 51.2% | 6% | >1000 mg/kg | 0.267 nM | – |
| COc1cc(N)c(Cl)cc1C(=O)NCC1CCN(Cc2cn(C)c3ccccc23)CC1 [Example 10, N-((1-((1-methylindol-3-yl)methyl)piperidin-4-yl)methyl)-4-amino-5-chloro-2-methoxybenzamide] | 59.1% | – | >1000 mg/kg | 0.076 nM | – |
| COc1cc(N)c(Cl)cc1C(=O)NCC1CCN(Cc2ncc[nH]2)CC1 [Example 11, N-((1-(imidazol-2-ylmethyl)piperidin-4-yl)methyl)-4-amino-5-chloro-2-methoxybenzamide] | 43.1% | 21% | >1000 mg/kg | 0.454 nM | – |
| COc1cc(N)c(Cl)cc1C(=O)NCC1CCN(Cc2cccn2C)CC1 [Example 12, N-((1-((1-methylpyrrol-2-yl)methyl)piperidin-4-yl)methyl)-4-amino-5-chloro-2-methoxybenzamide] | 62.0% | 32% | >1000 mg/kg | 0.421 nM | – |
| COc1cc(N)c(Cl)cc1C(=O)NCC1CCN(Cc2ccc(F)cc2)CC1 [Example 13, N-((1-(4-fluorobenzyl)piperidin-4-yl)methyl)-4-amino-5-chloro-2-methoxybenzamide] | 52.3% | 52% | >1000 mg/kg | 0.134 nM | – |
| COc1cc(N)c(Cl)cc1C(=O)NCC1CCN(Cc2ccc(O)cc2)CC1 [Example 14, N-((1-(4-hydroxybenzyl)piperidin-4-yl)methyl)-4-amino-5-chloro-2-methoxybenzamide] | 42.1% | 40% | >1000 mg/kg | 0.375 nM | – |
| COc1cc(N)c(Cl)cc1C(=O)NCC1CCN(CCc2c[nH]c3ccccc23)CC1 [Example 15, N-((1-(2-(indol-3-yl)ethyl)piperidin-4-yl)methyl)-4-amino-5-chloro-2-methoxybenzamide] | 41.3% | – | >1000 mg/kg | – | 0.002 nM |
